# The source made the active and inactive calls. The rule behind the calls is not given here.
# Tests used:
# [1] = Cell cycle arrest in human ALL5 cells assessed as accumulation in S phase at 5 times of antiproliferative IC50 incubated for 48 hrs by propidium iodide based flow cytometry (reference value: 10.3 %); format: functional
# [2] = Antiproliferative activity against human LoVo/DX cells assessed as reduction in cell viability incubated for 120 hrs by MTT assay; format: functional, cell-based
# Homo sapiens [3] = species on record: Homo sapiens; test: Induction of cell death in human ALL5 cells assessed as decrease in 4 N DNA at 5 times of antiproliferative IC50 incubated for 72 hrs by propidium iodide based flow cytometry; format: functional
# [4] = Cell cycle arrest in human ALL5 cells assessed as accumulation in subG1 phase at 5 times of antiproliferative IC50 incubated for 48 hrs by propidium iodide based flow cytometry (reference value: 11 %); format: functional
# MCF7 [5] = test: Cell cycle arrest in human MCF7 cells assessed as accumulation in S phase at 5 times of antiproliferative IC50 incubated for 24 hrs by propidium iodide based flow cytometry (reference value: 19.9 %); format: functional
# [6] = Cell cycle arrest in human ALL5 cells assessed as accumulation in G1 phase at 5 times of antiproliferative IC50 incubated for 72 hrs by propidium iodide based flow cytometry (reference value: 59.7 %); format: functional
# [7] = Selectivity index, ratio of IC50 of mouse BALB/3T3 cells to IC50 of human LoVo cells; format: toxicity; settings: BALB/3T3 cells versus LoVo cells, read-out: Ratio IC50
# [8] = Selectivity index, ratio of IC50 of mouse BALB/3T3 cells to IC50 of human MCF7 cells; format: toxicity; settings: BALB/3T3 cells versus MCF7 cells, read-out: Ratio IC50
# MCF7 [9] = test: Cell cycle arrest in human MCF7 cells assessed as accumulation in G2 phase at 5 times of antiproliferative IC50 incubated for 24 hrs by propidium iodide based flow cytometry (reference value: 22.4 %); format: functional
# [10] = Cell cycle arrest in human ALL5 cells assessed as accumulation in G2 phase at 5 times of antiproliferative IC50 incubated for 72 hrs by propidium iodide based flow cytometry (reference value: 11.3 %); format: functional
# Homo sapiens [11] = species on record: Homo sapiens; test: Induction of cell cycle arrest in human ALL5 cells assessed as increase in 4 N DNA at 5 times of antiproliferative IC50 incubated for 48 hrs by propidium iodide based flow cytometry; format: functional
# MCF7 [12] = test: Cell cycle arrest in human MCF7 cells assessed as accumulation in G2 phase at 5 times of antiproliferative IC50 incubated for 72 hrs by propidium iodide based flow cytometry (reference value: 18.6 %); format: functional
# [13] = Cell cycle arrest in human ALL5 cells assessed as accumulation in G2 phase at 5 times of antiproliferative IC50 incubated for 48 hrs by propidium iodide based flow cytometry (reference value: 11.2 %); format: functional
# MCF7 [14] = test: Cell cycle arrest in human MCF7 cells assessed as accumulation in G2 phase at 5 times of antiproliferative IC50 incubated for 48 hrs by propidium iodide based flow cytometry (reference value: 16 %); format: functional
# Homo sapiens [15] = species on record: Homo sapiens; test: Induction of cell cycle arrest in human ALL5 cells assessed as increase in 4 N DNA at 5 times of antiproliferative IC50 incubated for 24 hrs by propidium iodide based flow cytometry; format: functional
# MCF7 [16] = test: Antiproliferative activity against human MCF7 cells assessed as reduction in cell viability incubated for 120 hrs by MTT assay; format: functional, cell-based; settings: MCF7, 120 h
# [17] = Selectivity index, ratio of IC50 of mouse BALB/3T3 cells to IC50 of human LoVo/DX cells; format: toxicity; settings: BALB/3T3 cells versus LoVo/DX cells, read-out: Ratio IC50
# MCF7 [18] = test: Cell cycle arrest in human MCF7 cells assessed as accumulation in G1 phase at 5 times of antiproliferative IC50 incubated for 48 hrs by propidium iodide based flow cytometry (reference value: 40.8 %); format: functional
# LoVo = test: Antiproliferative activity against human LoVo cells assessed as reduction in cell viability incubated for 120 hrs by MTT assay; format: functional, cell-based
# [19] = Resistance index, ratio of IC50 of human LoVo/DX cells to IC50 of human LoVo cells; format: functional
# MCF7 [20] = test: Cell cycle arrest in human MCF7 cells assessed as accumulation in S phase at 5 times of antiproliferative IC50 incubated for 48 hrs by propidium iodide based flow cytometry (reference value: 34 %); format: functional
# MCF7 [21] = test: Cell cycle arrest in human MCF7 cells assessed as accumulation in subG1 phase at 5 times of antiproliferative IC50 incubated for 72 hrs by propidium iodide based flow cytometry (reference value: 3.59 %); format: functional
# [22] = Cell cycle arrest in human ALL5 cells assessed as accumulation in subG1 phase at 5 times of antiproliferative IC50 incubated for 24 hrs by propidium iodide based flow cytometry (reference value: 10.5 %); format: functional
# [23] = Antiproliferative activity against human ALL5 cells assessed as reduction in cell viability incubated for 120 hrs by MTT assay; format: functional, cell-based; settings: ALL5, 120 h
# [24] = Selectivity index, ratio of IC50 of mouse BALB/3T3 cells to IC50 of human A549 cells
# BALB/3T3 = test: Antiproliferative activity against mouse BALB/3T3 cells assessed as reduction in cell viability incubated for 120 hrs by MTT assay; format: cell-based; settings: BALB/3T3, 120 h
# [25] = Selectivity index, ratio of IC50 of mouse BALB/3T3 cells to IC50 of human ALL5 cells
# [26] = Cell cycle arrest in human ALL5 cells assessed as accumulation in G2 phase at 5 times of antiproliferative IC50 incubated for 24 hrs by propidium iodide based flow cytometry (reference value: 10.6 %); format: functional
# MCF7 [27] = test: Cell cycle arrest in human MCF7 cells assessed as accumulation in subG1 phase at 5 times of antiproliferative IC50 incubated for 24 hrs by propidium iodide based flow cytometry (reference value: 7.79 %); format: functional
# MCF7 [28] = test: Cell cycle arrest in human MCF7 cells assessed as accumulation in subG1 phase at 5 times of antiproliferative IC50 incubated for 48 hrs by propidium iodide based flow cytometry (reference value: 9.19 %); format: functional
# [29] = Cell cycle arrest in human ALL5 cells assessed as accumulation in S phase at 5 times of antiproliferative IC50 incubated for 24 hrs by propidium iodide based flow cytometry (reference value: […]); format: functional
# MCF7 [30] = test: Cell cycle arrest in human MCF7 cells assessed as accumulation in G1 phase at 5 times of antiproliferative IC50 incubated for 24 hrs by propidium iodide based flow cytometry (reference value: 49.9 %); format: functional
# [31] = Cell cycle arrest in human ALL5 cells assessed as accumulation in subG1 phase at 5 times of antiproliferative IC50 incubated for 72 hrs by propidium iodide based flow cytometry (reference value: 15.5 %); format: functional
# Homo sapiens [32] = species on record: Homo sapiens; test: Induction of apoptosis in human ALL5 cells assessed as increase in 85 kDa PARP expression at 26.5 uM incubated for 24 and 48 hrs by immunoblot analysis; format: functional, cell-based
# [33] = Cell cycle arrest in human ALL5 cells assessed as accumulation in G1 phase at 5 times of antiproliferative IC50 incubated for 24 hrs by propidium iodide based flow cytometry (reference value: 68.1 %); format: functional
# Homo sapiens [34] = species on record: Homo sapiens; test: Induction of apoptosis in human ALL5 cells assessed as reduction in 116 kDa PARP expression at 26.5 uM incubated for 24 and 48 hrs by immunoblot analysis; format: functional, cell-based
# MCF7 [35] = test: Cell cycle arrest in human MCF7 cells assessed as accumulation in G1 phase at 5 times of antiproliferative IC50 incubated for 72 hrs by propidium iodide based flow cytometry (reference value: 58 %); format: functional
# [36] = Cell cycle arrest in human ALL5 cells assessed as accumulation in G1 phase at 5 times of antiproliferative IC50 incubated for 48 hrs by propidium iodide based flow cytometry (reference value: 67.4 %); format: functional
# A549 = test: Antiproliferative activity against human A549 cells assessed as reduction in cell viability incubated for 120 hrs by MTT assay; format: functional, cell-based; settings: A549, 120 h
# MCF7 [37] = test: Cell cycle arrest in human MCF7 cells assessed as accumulation in S phase at 5 times of antiproliferative IC50 incubated for 72 hrs by propidium iodide based flow cytometry (reference value: 19.8 %); format: functional
# [38] = Cell cycle arrest in human ALL5 cells assessed as accumulation in S phase at 5 times of antiproliferative IC50 incubated for 72 hrs by propidium iodide based flow cytometry (reference value: 13.5 %); format: functional
# Homo sapiens [39] = species on record: Homo sapiens; test: Induction of apoptosis in human ALL5 cells assessed as reduction in 116 kDa PARP expression at 0.2 uM incubated for 24 and 48 hrs by immunoblot analysis; format: functional, cell-based
# Homo sapiens [40] = species on record: Homo sapiens; test: Induction of apoptosis in human ALL5 cells assessed as increase in 85 kDa PARP expression at 0.2 uM incubated for 24 and 48 hrs by immunoblot analysis; format: functional, cell-based
structure (smiles),measurement,setting,value
COCC(=O)N[C@H]1CCc2c(Br)c(OC)c(OC)c(OC)c2-c2ccc(SC)c(=O)cc21,Activity,[1],15.3%
same,IC50,[2],71.2 nM
same,Activity,Homo sapiens [3],Active
same,Activity,[4],29.1%
same,Activity,MCF7 [5],9.28%
same,Activity,[6],29.3%
same,selectivity ratio,[7],1.5
same,selectivity ratio,[8],1
same,Activity,MCF7 [9],74.7%
same,Activity,[10],8.92%
same,Activity,Homo sapiens [11],Active
same,Activity,MCF7 [12],65%
same,Activity,[13],20.6%
same,Activity,MCF7 [14],54.3%
same,Activity,Homo sapiens [15],Active
same,IC50,MCF7 [16],11.4 nM
same,selectivity ratio,[17],0.2
same,Activity,MCF7 [18],11.9%
same,IC50,LoVo,7.6 nM
same,Ratio IC50,[19],9.3
same,Activity,MCF7 [20],20.3%
same,Activity,MCF7 [21],15.1%
same,Activity,[22],17.1%
same,IC50,[23],5.3 nM
same,Ratio IC50,[24],1.1
same,IC50,BALB/3T3,11.4 nM
same,Ratio IC50,[25],2.2
same,Activity,[26],16.5%
same,Activity,MCF7 [27],6.3%
same,Activity,MCF7 [28],13.5%
same,Activity,[29],14.1%
same,Activity,MCF7 [30],9.68%
same,Activity,[31],36.8%
same,Activity,Homo sapiens [32],Active
same,Activity,[33],52.3%
same,Activity,Homo sapiens [34],Active
same,Activity,MCF7 [35],11.9%
same,Activity,[36],35%
same,IC50,A549,10.2 nM
same,Activity,MCF7 [37],7.98%
same,Activity,[38],25%
COc1cccc2c1C(=O)c1c(O)c3c(c(O)c1C2=O)C[C@@](O)(C(=O)CO)C[C@@H]3O[C@H]1C[C@H](N)[C@H](O)[C@H](C)O1 [DOXORUBICIN],Activity,[1],2.77%
same,Activity,Homo sapiens [39],Active
same,Activity,[4],21%
same,Activity,MCF7 [5],16.9%
same,Activity,[6],36.5%
same,Activity,MCF7 [9],30.5%
same,Activity,[10],9.99%
same,Activity,MCF7 [12],32.5%
same,Activity,[13],5.52%
same,Activity,MCF7 [14],32.4%
same,Activity,MCF7 [18],43.3%
same,Activity,MCF7 [20],18.3%
same,Activity,MCF7 [21],18.3%
same,Activity,[22],1.55%
same,IC50,[23],39.1 nM
same,IC50,BALB/3T3,166 nM
same,Activity,[26],22%
same,Activity,Homo sapiens [40],Active
same,Activity,MCF7 [27],5.28%
same,Activity,MCF7 [28],6.08%
same,Activity,[29],7.16%
same,Activity,MCF7 [30],47.3%
same,Activity,[31],36.6%
same,Activity,[33],66.3%
same,Activity,MCF7 [35],35.1%
same,Activity,[36],67.6%
same,IC50,A549,258 nM
same,Activity,MCF7 [37],14.1%
same,Activity,[38],16.9%
